Test results as given in patent publication US20150038435A1, “N-TERMINALLY MODIFIED OLIGOPEPTIDES AND USES THEREOF” (Novo Nordisk A/S, priority 2012, published 2015).
*: point of attachment. Lauroyl = CCCCCCCCCCCC(=O)*

Experiments:
Chymotrypsin = assay: Inhibition of enzymatic degradation of a model GLP-1 (FRET substrate) by chymotrypsin; type: biochemical
Summary of the method: (§1)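 Initial-rate slopes of fluorescence rise (320 nm ex, 405 nm em), fitted over the linear early phase and averaged from duplicates, were plotted against inhibitor concentration and fitted logistically to give EC50. Reactions ran at 37° C in Dulbecco's PBS, with MCA/DNP GLP-1 FRET substrate added as 10 μl of 100 μM stock.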

Trypsin = assay: Inhibition of enzymatic degradation of a model GLP-1 (FRET substrate) by trypsin; type: biochemical
Summary of the method: as §1

[1] = Hydrophobicity: retention time during reverse phase HPLC; type: physicochemical; conditions: Acquity CSH C18; pH 7.2 buffer/CH3CN gradient; 40° C.
Description: The retention time (RT) during reverse phase HPLC was taken as a measure of hydrophobicity of an N-terminally modified peptide or oligopeptide of the invention, where the connection is: The longer the RT, the more hydrophobic N-terminally modified peptide or oligopeptide. The following running conditions were applied during HPLC analysis:
Buffer B: 70% (v/v) aq. CH3CN

[2] = compound 0.1 mM, buffer containing 8% DMSO

N-dodecanoyl-Gln-Pro-Tyr-OH [Example 116]
Slope of the initial increase in fluorescence obtained during incubation with 0.001 mg/ml Chymotrypsin (Chymotrypsin; [2]): 1.48
Slope of the initial increase in fluorescence obtained during incubation with 0.001 mg/ml Trypsin (Trypsin; [2]): 1.75
RT (retention time during reverse phase HPLC as a measure of hydrophobicity) [1]: 5.08 min

N-dodecanoyl-Glu-Ala-Ala-Pro-Tyr-OH [Example 104]
Slope of the initial increase in fluorescence obtained during incubation with 0.001 mg/ml Chymotrypsin (Chymotrypsin; [2]): 0.16
Slope of the initial increase in fluorescence obtained during incubation with 0.001 mg/ml Trypsin (Trypsin; [2]): 1.63
RT (retention time during reverse phase HPLC as a measure of hydrophobicity) [1]: 3.83 min

N-dodecanoyl-Glu-Ala-Pro-Tyr-OH (Lauroyl-EAPY-OH; SMILES CCCCCCCCCCCC(=O)N[C@@H](CCC(=O)O)C(=O)N[C@@H](C)C(=O)N1CCC[C@H]1C(=O)N[C@@H](Cc1ccc(O)cc1)C(=O)O) [Example 105]
Slope of the initial increase in fluorescence obtained during incubation with 0.001 mg/ml Chymotrypsin (Chymotrypsin; [2]): 1.31
Slope of the initial increase in fluorescence obtained during incubation with 0.001 mg/ml Trypsin (Trypsin; [2]): 1.56
RT (retention time during reverse phase HPLC as a measure of hydrophobicity) [1]: 3.91 min

N-dodecanoyl-Glu-Pro-Tyr-OH [Example 117]
Slope of the initial increase in fluorescence obtained during incubation with 0.001 mg/ml Chymotrypsin (Chymotrypsin; [2]): 1.82
Slope of the initial increase in fluorescence obtained during incubation with 0.001 mg/ml Trypsin (Trypsin; [2]): 1.66
RT (retention time during reverse phase HPLC as a measure of hydrophobicity) [1]: 3.91 min

N-dodecanoyl-Gly-Ala-Ala-Pro-Tyr-OH [Example 36]
Slope of the initial increase in fluorescence obtained during incubation with 0.001 mg/ml Chymotrypsin (Chymotrypsin; [2]): 0.16
Slope of the initial increase in fluorescence obtained during incubation with 0.001 mg/ml Trypsin (Trypsin; [2]): 1.47
RT (retention time during reverse phase HPLC as a measure of hydrophobicity) [1]: 5.33 min

N-dodecanoyl-Gly-Pro-Tyr-OH [Example 118]
Slope of the initial increase in fluorescence obtained during incubation with 0.001 mg/ml Chymotrypsin (Chymotrypsin; [2]): 1.94
Slope of the initial increase in fluorescence obtained during incubation with 0.001 mg/ml Trypsin (Trypsin; [2]): 1.84
RT (retention time during reverse phase HPLC as a measure of hydrophobicity) [1]: 5.35 min

N-dodecanoyl-His-Ala-Ala-Pro-Tyr-OH [Example 38]
Slope of the initial increase in fluorescence obtained during incubation with 0.001 mg/ml Chymotrypsin (Chymotrypsin; [2]): 0.02
Slope of the initial increase in fluorescence obtained during incubation with 0.001 mg/ml Trypsin (Trypsin; [2]): 1.66
RT (retention time during reverse phase HPLC as a measure of hydrophobicity) [1]: 4.94 min

N-dodecanoyl-His-Ala-Pro-Tyr-OH (Lauroyl-HAPY-OH; SMILES CCCCCCCCCCCC(=O)N[C@@H](Cc1c[nH]cn1)C(=O)N[C@@H](C)C(=O)N1CCC[C@H]1C(=O)N[C@@H](Cc1ccc(O)cc1)C(=O)O) [Example 39]
Slope of the initial increase in fluorescence obtained during incubation with 0.001 mg/ml Chymotrypsin (Chymotrypsin; [2]): 0.27
Slope of the initial increase in fluorescence obtained during incubation with 0.001 mg/ml Trypsin (Trypsin; [2]): 1.84
RT (retention time during reverse phase HPLC as a measure of hydrophobicity) [1]: 5.08 min

N-dodecanoyl-His-Pro-Tyr-OH [Example 119]
Slope of the initial increase in fluorescence obtained during incubation with 0.001 mg/ml Chymotrypsin (Chymotrypsin; [2]): 0.70
Slope of the initial increase in fluorescence obtained during incubation with 0.001 mg/ml Trypsin (Trypsin; [2]): 2.13
RT (retention time during reverse phase HPLC as a measure of hydrophobicity) [1]: 5.12 min

N-dodecanoyl-Ile-Ala-Pro-Tyr-OH (Lauroyl-IAPY-OH; SMILES CCCCCCCCCCCC(=O)N[C@H](C(=O)N[C@@H](C)C(=O)N1CCC[C@H]1C(=O)N[C@@H](Cc1ccc(O)cc1)C(=O)O)[C@@H](C)CC) [Example 41]
Slope of the initial increase in fluorescence obtained during incubation with 0.001 mg/ml Chymotrypsin (Chymotrypsin; [2]): 0.84
Slope of the initial increase in fluorescence obtained during incubation with 0.001 mg/ml Trypsin (Trypsin; [2]): 1.96
RT (retention time during reverse phase HPLC as a measure of hydrophobicity) [1]: 7.76 min

N-dodecanoyl-Ile-Pro-Tyr-OH [Example 120]
Slope of the initial increase in fluorescence obtained during incubation with 0.001 mg/ml Chymotrypsin (Chymotrypsin; [2]): 0.17
Slope of the initial increase in fluorescence obtained during incubation with 0.001 mg/ml Trypsin (Trypsin; [2]): 1.08
RT (retention time during reverse phase HPLC as a measure of hydrophobicity) [1]: 7.82 min

N-dodecanoyl-Leu-Ala-Ala-Pro-Tyr-OH [Example 42]
Slope of the initial increase in fluorescence obtained during incubation with 0.001 mg/ml Chymotrypsin (Chymotrypsin; [2]): 0.00
Slope of the initial increase in fluorescence obtained during incubation with 0.001 mg/ml Trypsin (Trypsin; [2]): 0.89
RT (retention time during reverse phase HPLC as a measure of hydrophobicity) [1]: 7.87 min

N-dodecanoyl-Leu-Ala-Pro-Tyr-OH (Lauroyl-LAPY-OH; SMILES CCCCCCCCCCCC(=O)N[C@@H](CC(C)C)C(=O)N[C@@H](C)C(=O)N1CCC[C@H]1C(=O)N[C@@H](Cc1ccc(O)cc1)C(=O)O) [Example 43]
Slope of the initial increase in fluorescence obtained during incubation with 0.001 mg/ml Chymotrypsin (Chymotrypsin; [2]): 0.21
Slope of the initial increase in fluorescence obtained during incubation with 0.001 mg/ml Trypsin (Trypsin; [2]): 1.36
RT (retention time during reverse phase HPLC as a measure of hydrophobicity) [1]: 7.86 min

N-dodecanoyl-Leu-Pro-Tyr-OH [Example 121]
Slope of the initial increase in fluorescence obtained during incubation with 0.001 mg/ml Chymotrypsin (Chymotrypsin; [2]): 0.34
Slope of the initial increase in fluorescence obtained during incubation with 0.001 mg/ml Trypsin (Trypsin; [2]): 1.35
RT (retention time during reverse phase HPLC as a measure of hydrophobicity) [1]: 7.77 min

N-dodecanoyl-Lys-Ala-Pro-Tyr-OH (Lauroyl-KAPY-OH; SMILES CCCCCCCCCCCC(=O)N[C@@H](CCCCN)C(=O)N[C@@H](C)C(=O)N1CCC[C@H]1C(=O)N[C@@H](Cc1ccc(O)cc1)C(=O)O) [Example 45]
Slope of the initial increase in fluorescence obtained during incubation with 0.001 mg/ml Chymotrypsin (Chymotrypsin; [2]): 0.89
Slope of the initial increase in fluorescence obtained during incubation with 0.001 mg/ml Trypsin (Trypsin; [2]): 1.84
RT (retention time during reverse phase HPLC as a measure of hydrophobicity) [1]: 4.62 min

N-dodecanoyl-Lys-Pro-Tyr-OH [Example 122]
Slope of the initial increase in fluorescence obtained during incubation with 0.001 mg/ml Chymotrypsin (Chymotrypsin; [2]): 0.26
Slope of the initial increase in fluorescence obtained during incubation with 0.001 mg/ml Trypsin (Trypsin; [2]): 1.68
RT (retention time during reverse phase HPLC as a measure of hydrophobicity) [1]: 5.17 min

N-dodecanoyl-Met-Ala-Ala-Pro-Tyr-OH (Lauroyl-MAAPY-OH; SMILES CCCCCCCCCCCC(=O)N[C@@H](CCSC)C(=O)N[C@@H](C)C(=O)N[C@@H](C)C(=O)N1CCC[C@H]1C(=O)N[C@@H](Cc1ccc(O)cc1)C(=O)O) [Example 46]
Slope of the initial increase in fluorescence obtained during incubation with 0.001 mg/ml Chymotrypsin (Chymotrypsin; [2]): 0.09
Slope of the initial increase in fluorescence obtained during incubation with 0.001 mg/ml Trypsin (Trypsin; [2]): 1.76
RT (retention time during reverse phase HPLC as a measure of hydrophobicity) [1]: 7.06 min

N-dodecanoyl-Met-Ala-Pro-Tyr-OH (Lauroyl-MAPY-OH; SMILES CCCCCCCCCCCC(=O)N[C@@H](CCSC)C(=O)N[C@@H](C)C(=O)N1CCC[C@H]1C(=O)N[C@@H](Cc1ccc(O)cc1)C(=O)O) [Example 47]
Slope of the initial increase in fluorescence obtained during incubation with 0.001 mg/ml Chymotrypsin (Chymotrypsin; [2]): 0.48
Slope of the initial increase in fluorescence obtained during incubation with 0.001 mg/ml Trypsin (Trypsin; [2]): 1.77
RT (retention time during reverse phase HPLC as a measure of hydrophobicity) [1]: 7.09 min

N-dodecanoyl-Met-Pro-Tyr-OH [Example 123]
Slope of the initial increase in fluorescence obtained during incubation with 0.001 mg/ml Chymotrypsin (Chymotrypsin; [2]): 0.82
Slope of the initial increase in fluorescence obtained during incubation with 0.001 mg/ml Trypsin (Trypsin; [2]): 2.11
RT (retention time during reverse phase HPLC as a measure of hydrophobicity) [1]: 7.23 min

N-dodecanoyl-OEG-OEG-DPhe-OEG-OH [Example 131]
Slope of the initial increase in fluorescence obtained during incubation with 0.001 mg/ml Chymotrypsin (Chymotrypsin; compound 1 mM): 0.53
Slope of the initial increase in fluorescence obtained during incubation with 0.001 mg/ml Trypsin (Trypsin; compound 1 mM): 0.62
RT (retention time during reverse phase HPLC as a measure of hydrophobicity) [1]: 6.21 min

N-dodecanoyl-OEG-OEG-DPhe-OH [Example 129]
Slope of the initial increase in fluorescence obtained during incubation with 0.001 mg/ml Chymotrypsin (Chymotrypsin; compound 1 mM): 0.16
EC50 (Chymotrypsin; read-out: EC50 Chymotrypsin (0.001 mg/ml), 0.001 mg/ml chymotrypsin, 37° C., ± standard error if at least 3 measurements): 341 µM
Slope of the initial increase in fluorescence obtained during incubation with 0.001 mg/ml Trypsin (Trypsin; compound 1 mM): 0.38
EC50 (Trypsin; read-out: EC50 Trypsin (0.001 mg/ml), 0.001 mg/ml trypsin, 37° C.): 391 µM
RT (retention time during reverse phase HPLC as a measure of hydrophobicity) [1]: 6.34 min

N-dodecanoyl-OEG-OEG-Phe-OEG-OH [Example 130]
Slope of the initial increase in fluorescence obtained during incubation with 0.001 mg/ml Chymotrypsin (Chymotrypsin; compound 1 mM): 0.54
Slope of the initial increase in fluorescence obtained during incubation with 0.001 mg/ml Trypsin (Trypsin; compound 1 mM): 0.67
RT (retention time during reverse phase HPLC as a measure of hydrophobicity) [1]: 6.21 min

N-dodecanoyl-OEG-OEG-Phe-OH [Example 128]
Slope of the initial increase in fluorescence obtained during incubation with 0.001 mg/ml Chymotrypsin (Chymotrypsin; compound 1 mM): 0.86
Slope of the initial increase in fluorescence obtained during incubation with 0.001 mg/ml Trypsin (Trypsin; compound 1 mM): 0.35
RT (retention time during reverse phase HPLC as a measure of hydrophobicity) [1]: 3.08 min

N-dodecanoyl-Phe-Pro-Tyr-OH [Example 124]
Slope of the initial increase in fluorescence obtained during incubation with 0.001 mg/ml Chymotrypsin (Chymotrypsin; [2]): 0.12
Slope of the initial increase in fluorescence obtained during incubation with 0.001 mg/ml Trypsin (Trypsin; [2]): 0.63
RT (retention time during reverse phase HPLC as a measure of hydrophobicity) [1]: 8.19 min

N-dodecanoyl-Pro-Ala-Ala-Pro-Tyr-OH [Example 48]
Slope of the initial increase in fluorescence obtained during incubation with 0.001 mg/ml Chymotrypsin (Chymotrypsin; [2]): 0.07
Slope of the initial increase in fluorescence obtained during incubation with 0.001 mg/ml Trypsin (Trypsin; [2]): 1.55
RT (retention time during reverse phase HPLC as a measure of hydrophobicity) [1]: 6.2 min

N-dodecanoyl-Pro-Ala-Pro-Tyr-OH (Lauroyl-PAPY-OH; SMILES CCCCCCCCCCCC(=O)N1CCC[C@H]1C(=O)N[C@@H](C)C(=O)N1CCC[C@H]1C(=O)N[C@@H](Cc1ccc(O)cc1)C(=O)O) [Example 49]
Slope of the initial increase in fluorescence obtained during incubation with 0.001 mg/ml Chymotrypsin (Chymotrypsin; [2]): 0.57
Slope of the initial increase in fluorescence obtained during incubation with 0.001 mg/ml Trypsin (Trypsin; [2]): 1.96
RT (retention time during reverse phase HPLC as a measure of hydrophobicity) [1]: 6.2 min

N-dodecanoyl-Pro-Pro-Tyr-OH [Example 106]
Slope of the initial increase in fluorescence obtained during incubation with 0.001 mg/ml Chymotrypsin (Chymotrypsin; [2]): 1.72
Slope of the initial increase in fluorescence obtained during incubation with 0.001 mg/ml Trypsin (Trypsin; [2]): 1.75
RT (retention time during reverse phase HPLC as a measure of hydrophobicity) [1]: 6.01 min

N-dodecanoyl-Ser-Ala-Ala-Pro-Tyr-OH [Example 50]
Slope of the initial increase in fluorescence obtained during incubation with 0.001 mg/ml Chymotrypsin (Chymotrypsin; [2]): 0.09
Slope of the initial increase in fluorescence obtained during incubation with 0.001 mg/ml Trypsin (Trypsin; [2]): 1.48
RT (retention time during reverse phase HPLC as a measure of hydrophobicity) [1]: 5.16 min

N-dodecanoyl-Ser-Ala-Pro-Tyr-OH (Lauroyl-SAPY-OH; SMILES CCCCCCCCCCCC(=O)N[C@@H](CO)C(=O)N[C@@H](C)C(=O)N1CCC[C@H]1C(=O)N[C@@H](Cc1ccc(O)cc1)C(=O)O) [Example 51]
Slope of the initial increase in fluorescence obtained during incubation with 0.001 mg/ml Chymotrypsin (Chymotrypsin; [2]): 0.41
Slope of the initial increase in fluorescence obtained during incubation with 0.001 mg/ml Trypsin (Trypsin; [2]): 1.66
RT (retention time during reverse phase HPLC as a measure of hydrophobicity) [1]: 5.2 min
